In this assay the test system is L1210 murine leukemia (ATCC CCL 219) cell line. Kind of assay: Cellular growth inhibition, MTT-tetrazolium reduction assay. It counts as cell-based. The note with it: Mus musculus, 72 h; L1210 cells, 3 days of continuous exposure. The procedure:
Cellular growth in the presence of the compounds according to the present invention was assessed using the L1210 murine leukemia (ATCC CCL 219) cell line. The cell line was maintained in RPMI 1640 medium containing 5% heat-inactivated fetal bovine serum without antibiotics.
Water insoluble derivatives were dissolved in DMSO and diluted to a final concentration of 0.5% solvent in cell cultures.
Background: Tetrazolium dyes change colour on reduction, which living cells bring about.

As usually defined, the IC50 is the concentration that inhibits the measured activity by half. A lower IC50 goes with inhibition by little substance.

In turn, `Nc1nc2c(c(=O)[nH]1)SC(CCc1ccc(C(=O)N[C@@H](CCC(=O)O)C(=O)O)cc1)CN2` (stereo partly shown) [(14), 2-[4-[2-(2-Amino-4-oxo-4,6,7,8-tetrahydro-3H-pyrimido[5,4-b][1,4]thiazin-6-yl)-ethyl]benzoylamino)pentanedioic acid] yielded an IC50 of 0.05 µM.

(Values after patent publication EP1094066A2, “Condensed heterocyclic glutamic acid derivatives as antiproliferative agents” (AGOURON PHARMACEUTICALS, INC., priority 1993, dated 1994).)
